pEC50: −log10 of the molar value. Read-outs that look alike come from different tables or passages of the source.
How the values were obtained:
Assay type in all cases: binding
[1] = molecular target: synthetic Aβ(1–42) fibrils (Homo sapiens, UniProt P05067); assay: Displacement of 5 nM [3H]-1a
[2] = molecular target: synthetic Aβ(1–40) fibrils (Homo sapiens, UniProt P05067); assay: Displacement of 5 nM [3H]-1a
Aβ40 and Aβ42 fibrils = assay: Displacement of tritiated 1a from Aβ fibrils; conditions: benzothiazole ligands versus tritiated 1a on Aβ fibrils
[3] = read-out: Aβ(1–42) EC50, displacement of 5 nM [3H]-1a from synthetic Aβ(1–42) fibrils
[4] = read-out: Aβ(1–40) EC50, displacement of 5 nM [3H]-1a from synthetic Aβ(1–40) fibrils

Sequence of synthetic Aβ(1–40) fibrils (P05067 672-711): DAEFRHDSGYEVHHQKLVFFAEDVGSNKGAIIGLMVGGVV
Sequence of synthetic Aβ(1–42) fibrils (P05067 672-713): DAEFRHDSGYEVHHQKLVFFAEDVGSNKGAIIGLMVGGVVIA

Row | pEC50 [1] | pEC50 [2] | displacing 1a (Aβ40 and Aβ42 fibrils) | pEC50 [1, 3] | pEC50 [2, 4] | Compound
1 |  |  | ineffective |  |  | Cc1ccc2c(c1)sc(-c1ccc(N(C)C)cc1)[n+]2C.[Cl-] [ThT, Thioflavine T]
2 | < 5.00 | < 5.00 |  |  |  | CC(C)Cc1ccc(C(C)C(=O)O)cc1 (stereo not drawn) [ibuprofen]
3 | < 5.00 | < 5.00 |  |  |  | COc1ccc2cc([C@H](C)C(=O)O)ccc2c1 [naproxen]
4 |  |  |  | < 5.00 | < 5.00 | Thioflavin S [ThS]
5 |  |  |  | < 5.00 | < 5.00 | primulin

The next lines start with the compound.

Row | Compound | pEC50 [1] | pEC50 [2] | displacing 1a (Aβ40 and Aβ42 fibrils) | pEC50 [1, 3] | pEC50 [2, 4]
6 | COc1cc(/C=C/c2ccc(N)cc2)ccc1/C=C/c1ccc(N)cc1 [BMB, (E,E)-1-methoxy-2,5-bis(4’-aminostyryl)benzene] | 5.52 | < 5.00 |  |  | 
7 | O=C(O)c1cc(/C=C/c2ccc(/C=C/c3ccc(O)c(C(=O)O)c3)c(Br)c2)ccc1O [BSB] | 6.92 | 6.64 |  |  | 
8 | CNc1ccc(-c2nc3ccccc3s2)cc1 [BTA-1, 2-(4´-methylaminophenyl)benzothiazole] |  |  | ineffective |  | 
9 | O=C(O)c1cc(/N=N/c2ccc(-c3ccc(/N=N/c4ccc(O)c(C(=O)O)c4)cc3)cc2)ccc1O [Chrysamine G] | 6.05 | 5.05 |  |  | 
10 | Nc1c(/N=N/c2ccc(-c3ccc(/N=N/c4cc(S(=O)(=O)O)c5ccccc5c4N)cc3)cc2)cc(S(=O)(=O)O)c2ccccc12 [Congo Red] | 6.15 | 5.64 |  |  | 
11 | Oc1ccc(/C=C/c2ccc(/C=C/c3ccc(O)cc3)c(Br)c2)cc1 [K114, (E,E)-1-bromo-2,5-bis(4’-hydroxystyryl)benzene] | 5.52 | < 5.00 |  |  | 
12 | CNc1ccc(-c2nc3ccc(O)cc3s2)cc1 [PIB, Pittsburgh Compound B] |  |  | ineffective |  | 
